Common to all, as to format: functional, cell-based
For assay [1], the system named is KB. The assay is described as follows: Cytotoxicity against human KB cells incubated for 72 hrs by SRB method.
Assay [2] has as its system KB. The assay is described as follows: Cytotoxicity against human Vincristine-resistant KB cells incubated for 72 hrs by SRB method.
Assay [3] deals with HepG2. The assay can be described thus: Antiproliferative activity against human HepG2 cells incubated for 48 to 72 hrs by MTT assay.
For assay [4], the system named is B16. The assay can be described thus: Antiproliferative activity against […] cells incubated for 48 to 72 hrs by MTT assay. Conditions: Mus musculus.
Assay [5] has as its system NCI-H1993. The assay can be described thus: Antiproliferative activity against human NCI-H1993 cells incubated for 48 to 72 hrs by MTT assay.
Assay [6] concerns MKN-45. The assay is described as follows: Antiproliferative activity against human MKN-45 cells incubated for 48 to 72 hrs by MTT assay.

Consider `COc1cc([C@@H]2c3cc4c(cc3[C@@H](SSCCO)[C@H]3COC(=O)[C@H]23)OCO4)cc(OC)c1O`, for which the IC50 in assay [1] and in assay [2] was 1.12 µM each time.

As for `COc1cc([C@@H]2c3cc4c(cc3[C@@H](SSCCCN3CCC(O)CC3)[C@H]3COC(=O)[C@H]23)OCO4)cc(OC)c1O`, the half-inhibitory concentration (IC50) in assay [1] and in assay [2] was 1.12 µM each time.

With `COc1cc([C@@H]2c3cc4c(cc3[C@@H](SSCCCN3CCOCC3)[C@H]3COC(=O)[C@H]23)OCO4)cc(OC)c1O`, the IC50 in assay [1] and in assay [2] was 1.12 µM throughout.

Turning to `COc1cc([C@@H]2c3cc4c(cc3[C@H](n3cc(COc5ccc(C)c([N+](=O)[O-])c5)nn3)[C@H]3COC(=O)[C@H]23)OCO4)cc(OC)c1OC`, the IC50 in assay [3], in assay [4], in assay [5] and in assay [6] was 0.13 µM in each case.

In the case of `COc1cc([C@@H]2c3cc4c(cc3[C@@H](SSCCCN3CCCC3)[C@H]3COC(=O)[C@H]23)OCO4)cc(OC)c1O`, the IC50 in assay [1] and in assay [2] was 1.12 µM throughout.

On to `COc1cc([C@@H]2c3cc4c(cc3[C@H](n3cc(COc5cccc([N+](=O)[O-])c5)nn3)[C@H]3COC(=O)[C@H]23)OCO4)cc(OC)c1OC`, for which the IC50 in assay [3], in assay [4], in assay [5] and in assay [6] was 0.13 µM throughout.

With `COc1cc([C@@H]2c3cc4c(cc3[C@@H](SSc3cccs3)[C@H]3COC(=O)[C@H]23)OCO4)cc(OC)c1O`, the IC50 in assay [1] and in assay [2] was 1.12 µM in each case.

Take `COc1cc([C@@H]2c3cc4c(cc3[C@@H](SSSCC(=O)N3CCNCC3)[C@H]3COC(=O)[C@H]23)OCO4)cc(OC)c1O`: the IC50 in assay [1] and in assay [2] was 1.12 µM in each case.

Take `COc1cc([C@@H]2c3cc4c(cc3[C@@H](SSCCN3CCCC(O)C3)[C@H]3COC(=O)[C@H]23)OCO4)cc(OC)c1O` (stereo not given in full): the IC50 in assay [1] and in assay [2] was 1.12 µM each time.

Take `COc1cc([C@@H]2c3cc4c(cc3[C@@H](SSSCC(O)CO)[C@H]3COC(=O)[C@H]23)OCO4)cc(OC)c1O` (stereo not given in full): the IC50 in assay [1] and in assay [2] was 1.12 µM in each case.

For the compound `COc1cc([C@@H]2c3cc4c(cc3[C@@H](SSSCCO)[C@H]3COC(=O)[C@H]23)OCO4)cc(OC)c1O`, the IC50 in assay [1] and in assay [2] was 1.12 µM each time.

With `COc1cc([C@@H]2c3cc4c(cc3[C@@H](SS[C@@H]3O[C@@H]5O[C@@H](c6cccs6)OC[C@H]5[C@H](O)[C@H]3O)[C@H]3COC(=O)[C@H]23)OCO4)cc(OC)c1O`, the IC50 in assay [1] and in assay [2] was 1.12 µM throughout.

`COc1cc([C@@H]2c3cc4c(cc3[C@@H](SSCC(=O)N3CCC(=O)CC3)[C@H]3COC(=O)[C@H]23)OCO4)cc(OC)c1O`: the IC50 in assay [1] and in assay [2] was 1.12 µM throughout.

As for `COc1ccc(OCc2cn([C@H]3c4cc5c(cc4[C@@H](c4cc(OC)c(OC)c(OC)c4)[C@H]4C(=O)OC[C@@H]43)OCO5)nn2)cc1`, the IC50 in assay [3], in assay [4], in assay [5] and in assay [6] was 0.13 µM in each case.

For the compound `COc1cc([C@@H]2c3cc4c(cc3[C@@H](SSCCN3CCNCC3)[C@H]3COC(=O)[C@H]23)OCO4)cc(OC)c1O`, the IC50 in assay [1] and in assay [2] was 1.12 µM in each case.

Take `COc1cc([C@@H]2c3cc4c(cc3[C@@H](SSCCCN3CCN(C)CC3)[C@H]3COC(=O)[C@H]23)OCO4)cc(OC)c1O`: the IC50 in assay [1] and in assay [2] was 1.12 µM throughout.

For `COc1cc([C@@H]2c3cc4c(cc3[C@@H](SSCCN3CCOCC3)[C@H]3COC(=O)[C@H]23)OCO4)cc(OC)c1O`, the IC50 in assay [1] and in assay [2] was 1.12 µM in each case.

Consider `COc1cc([C@@H]2c3cc4c(cc3[C@@H](SSCCCN3CCN(C(C)=O)CC3)[C@H]3COC(=O)[C@H]23)OCO4)cc(OC)c1O`, for which the IC50 in assay [1] and in assay [2] was 1.12 µM each time.

As for `COc1cc([C@@H]2c3cc4c(cc3[C@@H](SSCCCN(C(C)C)C(C)C)[C@H]3COC(=O)[C@H]23)OCO4)cc(OC)c1O`, the IC50 in assay [1] and in assay [2] was 1.12 µM throughout.

Regarding `COc1cc([C@@H]2c3cc4c(cc3[C@@H](SSS[C@@H]3O[C@H](CO)[C@@H](O)[C@H](O)[C@H]3O)[C@H]3COC(=O)[C@H]23)OCO4)cc(OC)c1O`, the IC50 in assay [1] and in assay [2] was 1.12 µM in each case.

Consider `COc1cc([C@@H]2c3cc4c(cc3[C@@H](SSc3cccnc3)[C@H]3COC(=O)[C@H]23)OCO4)cc(OC)c1O`, for which the IC50 in assay [1] and in assay [2] was 1.12 µM throughout.

Take `COc1cc([C@@H]2c3cc4c(cc3[C@@H](SSCC(=O)N3CCCC(O)C3)[C@H]3COC(=O)[C@H]23)OCO4)cc(OC)c1O` (stereo not given in full): the IC50 in assay [1] and in assay [2] was 1.12 µM throughout.

In the case of `COC(=O)C(N)CSS[C@@H]1c2cc3c(cc2[C@@H](c2cc(OC)c(O)c(OC)c2)[C@H]2C(=O)OC[C@@H]21)OCO3` (stereo not given in full), the IC50 in assay [1] and in assay [2] was 1.12 µM each time.

Regarding `COc1cc([C@@H]2c3cc4c(cc3[C@@H](SSCC(=O)N3CCOCC3)[C@H]3COC(=O)[C@H]23)OCO4)cc(OC)c1O`, the IC50 in assay [1] and in assay [2] was 1.12 µM each time.

For the compound `COc1cc([C@@H]2c3cc4c(cc3[C@@H](SSCCN)[C@H]3COC(=O)[C@H]23)OCO4)cc(OC)c1O`, the IC50 in assay [1] and in assay [2] was 1.12 µM throughout.

For `COc1cc([C@@H]2c3cc4c(cc3[C@@H](SSCC(=O)N3CCC(O)CC3)[C@H]3COC(=O)[C@H]23)OCO4)cc(OC)c1O`, the IC50 in assay [1] and in assay [2] was 1.12 µM throughout.

Turning to `COc1cc([C@@H]2c3cc4c(cc3[C@@H](SSc3ccccn3)[C@H]3COC(=O)[C@H]23)OCO4)cc(OC)c1O`, the IC50 in assay [1] and in assay [2] was 1.12 µM each time.

As for `COc1cc([C@@H]2c3cc4c(cc3[C@@H](SS[C@@H]3O[C@H](CO)[C@@H](O)[C@H](O)[C@H]3O)[C@H]3COC(=O)[C@H]23)OCO4)cc(OC)c1O`, the IC50 in assay [1] and in assay [2] was 1.12 µM in each case.

With `CCN(CC)CCCSS[C@@H]1c2cc3c(cc2[C@@H](c2cc(OC)c(O)c(OC)c2)[C@H]2C(=O)OC[C@@H]21)OCO3`, the 50% inhibitory concentration (IC50) in assay [1] and in assay [2] was 1.12 µM each time.

For the compound `CCC(C)(C)c1ccc(OCc2cn([C@H]3c4cc5c(cc4[C@@H](c4cc(OC)c(OC)c(OC)c4)[C@H]4C(=O)OC[C@@H]43)OCO5)nn2)cc1`, the IC50 in assay [3], in assay [4], in assay [5] and in assay [6] was 0.13 µM throughout.

For the compound `CCSSS[C@@H]1c2cc3c(cc2[C@@H](c2cc(OC)c(O)c(OC)c2)[C@H]2C(=O)OC[C@@H]21)OCO3`, the IC50 in assay [1] and in assay [2] was 1.12 µM throughout.

In the case of `COc1cc([C@@H]2c3cc4c(cc3[C@H](n3cc(COc5ccc6ccc(=O)oc6c5)nn3)[C@H]3COC(=O)[C@H]23)OCO4)cc(OC)c1OC`, the IC50 in assay [3], in assay [4], in assay [5] and in assay [6] was 0.13 µM in each case.

As for `COc1cc([C@@H]2c3cc4c(cc3[C@@H](SS[C@@H]3O[C@@H]5O[C@@H](C)OC[C@H]5[C@H](O)[C@H]3O)[C@H]3COC(=O)[C@H]23)OCO4)cc(OC)c1O`, the IC50 in assay [1] and in assay [2] was 1.12 µM each time.

`CCc1ccc(OCc2cn([C@H]3c4cc5c(cc4[C@@H](c4cc(OC)c(OC)c(OC)c4)[C@H]4C(=O)OC[C@@H]43)OCO5)nn2)cc1`: the half-inhibitory concentration (IC50) in assay [3], in assay [4], in assay [5] and in assay [6] was 0.13 µM throughout.

On to `COc1cc([C@@H]2c3cc4c(cc3[C@@H](SSCC(=O)N3CCNCC3)[C@H]3COC(=O)[C@H]23)OCO4)cc(OC)c1O`, for which the IC50 in assay [1] and in assay [2] was 1.12 µM throughout.

As to `COc1cc([C@@H]2c3cc4c(cc3[C@@H](SSCCCN3CCCCC3)[C@H]3COC(=O)[C@H]23)OCO4)cc(OC)c1O`, the IC50 in assay [1] and in assay [2] was 1.12 µM throughout.

As for `COc1cc([C@@H]2c3cc4c(cc3[C@@H](SS[C@@H]3O[C@H](COC(C)=O)[C@H](OC(C)=O)[C@H](OC(C)=O)[C@H]3OC(C)=O)[C@H]3COC(=O)[C@H]23)OCO4)cc(OC)c1O`, the IC50 in assay [1] and in assay [2] was 1.12 µM throughout.

Consider `COc1cc([C@@H]2c3cc4c(cc3[C@@H](SSCCCN3CCCCC3CO)[C@H]3COC(=O)[C@H]23)OCO4)cc(OC)c1O` (stereo not given in full), for which the concentration for half-maximal inhibition (IC50) in assay [1] and in assay [2] was 1.12 µM in each case.

For `COc1cc([C@@H]2c3cc4c(cc3[C@@H](SSSCCCN3CCOCC3)[C@H]3COC(=O)[C@H]23)OCO4)cc(OC)c1O`, the IC50 in assay [1] and in assay [2] was 1.12 µM in each case.

For `COc1cc([C@@H]2c3cc4c(cc3[C@H](n3cc(COc5ccc([N+](=O)[O-])cc5)nn3)[C@H]3COC(=O)[C@H]23)OCO4)cc(OC)c1OC`, the IC50 in assay [3], in assay [4], in assay [5] and in assay [6] was 0.13 µM throughout.

In the case of `CCSS[C@@H]1c2cc3c(cc2[C@@H](c2cc(OC)c(O)c(OC)c2)[C@H]2C(=O)OC[C@@H]21)OCO3`, the IC50 in assay [1] and in assay [2] was 1.12 µM throughout.

`COc1cc([C@@H]2c3cc4c(cc3[C@@H](SSCCCN3CCNCC3)[C@H]3COC(=O)[C@H]23)OCO4)cc(OC)c1O`: the IC50 in assay [1] and in assay [2] was 1.12 µM each time.

On to `COc1cc([C@@H]2c3cc4c(cc3[C@@H](SS[C@@H]3O[C@H](CO)[C@H](O)[C@H](O)[C@H]3O)[C@H]3COC(=O)[C@H]23)OCO4)cc(OC)c1O`, for which the IC50 stood at 1.12 µM in assay [1] and 9.96 µM in assay [2].

Source of the values: ChEMBL document CHEMBL4818987, “Recent advances of podophyllotoxin/epipodophyllotoxin hybrids in anticancer activity, mode of action, and structure-activity relationship: An update (2010-2020)” (Eur J Med Chem, 2020).
